Laboratory results reported in US20090043129A1 (priority 2005, published 2009).
Read-outs that look alike come from different tables or passages of the source.

Legend:
[1] = target: T1, Fatty Acid Amide Hydrolase (FAAH) (Rattus norvegicus, UniProt P97612); experiment: biochemical
T1 sequence (P97612 1-579): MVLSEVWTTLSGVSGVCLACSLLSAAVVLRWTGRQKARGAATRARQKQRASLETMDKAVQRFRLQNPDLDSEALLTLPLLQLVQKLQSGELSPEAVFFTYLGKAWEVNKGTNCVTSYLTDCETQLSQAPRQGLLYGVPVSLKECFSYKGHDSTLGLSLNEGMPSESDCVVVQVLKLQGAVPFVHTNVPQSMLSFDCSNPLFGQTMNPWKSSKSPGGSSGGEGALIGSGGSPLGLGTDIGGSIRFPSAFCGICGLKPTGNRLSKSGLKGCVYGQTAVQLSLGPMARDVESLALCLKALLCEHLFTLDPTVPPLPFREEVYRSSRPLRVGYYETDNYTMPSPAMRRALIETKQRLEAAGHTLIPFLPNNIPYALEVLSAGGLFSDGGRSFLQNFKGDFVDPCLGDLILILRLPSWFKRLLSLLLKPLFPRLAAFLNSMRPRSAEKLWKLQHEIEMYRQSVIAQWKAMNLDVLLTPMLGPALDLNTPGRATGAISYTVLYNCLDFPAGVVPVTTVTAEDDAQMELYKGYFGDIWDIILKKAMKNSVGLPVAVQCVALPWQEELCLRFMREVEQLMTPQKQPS
Experimental: Assay for Fatty Acid Amide Hydrolase (FAAH)
The effect of compounds on the enzymatic hydrolysis of [^14C]anandamide (6 μM) was studied using membranes prepared from rat brain incubated with increasing concentrations of compounds in 50 mM Tris-HCl, pH 9, for 30 minutes at 37° C. (Di Marzo et al., 2002). [^14C]ethanolamine produced from [^14C]anandamide hydrolysis was measured counting the scintillation of the aqueous phase after extraction of the incubation mixture with 2 volumes of CHCl3/CH3OH (2:1 by volume). […]

[2] = system: Anandamide Membrane Transporter (AMT); experiment: Anandamide uptake by RBL-2H3 cells; format: cell-based; details: anandamide uptake, read-out: AMT IC50
Experimental: Assay for the Anandamide Membrane Transporter (AMT)
The effect of the compounds on the uptake of anandamide by the RBL-2H3 cells was studied as described (Di Marzo et al., 2002). Cells were incubated with [^14C]anandamide (4 μM) for 5 minutes at 37° C., in the presence or absence of varying concentrations of the inhibitors. Residual [^14C]anandamide in the incubation media after extraction with CHCl3/CH3OH (2:1 by volume) was used as a measure of the anandamide that was taken up by cells. Data are expressed as the concentration that produces 50% of inhibition of anandamide uptake (IC50) calculated with GraphPad.

[3] = target: human recombinant CB1 receptor (Homo sapiens, UniProt P21554); format: binding; design: purchased Perkin-Elmer; host or cells: COS cells
Chain of human recombinant CB1 receptor (P21554 whole entry): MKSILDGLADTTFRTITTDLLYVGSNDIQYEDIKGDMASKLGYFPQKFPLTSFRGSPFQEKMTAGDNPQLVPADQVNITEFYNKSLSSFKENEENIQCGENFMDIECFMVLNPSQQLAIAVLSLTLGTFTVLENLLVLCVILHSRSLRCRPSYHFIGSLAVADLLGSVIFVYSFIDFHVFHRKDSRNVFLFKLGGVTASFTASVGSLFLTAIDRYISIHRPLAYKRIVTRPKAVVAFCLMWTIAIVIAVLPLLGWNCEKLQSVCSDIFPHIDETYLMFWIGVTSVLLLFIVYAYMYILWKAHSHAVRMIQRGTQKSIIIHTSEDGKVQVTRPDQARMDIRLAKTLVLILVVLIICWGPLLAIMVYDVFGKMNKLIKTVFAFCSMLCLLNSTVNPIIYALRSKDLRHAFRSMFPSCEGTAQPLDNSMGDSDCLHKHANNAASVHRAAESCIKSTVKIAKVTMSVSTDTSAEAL

[4] = target: human recombinant CB2 receptor (Homo sapiens, UniProt P34972); experiment: CB2 binding, [3H]CP55,940 displacement, membranes from transfected COS cells; design: purchased Perkin-Elmer; host or cells: COS cells; details: recombinant human CB2, COS cell membranes
Chain of human recombinant CB2 receptor (P34972 whole entry): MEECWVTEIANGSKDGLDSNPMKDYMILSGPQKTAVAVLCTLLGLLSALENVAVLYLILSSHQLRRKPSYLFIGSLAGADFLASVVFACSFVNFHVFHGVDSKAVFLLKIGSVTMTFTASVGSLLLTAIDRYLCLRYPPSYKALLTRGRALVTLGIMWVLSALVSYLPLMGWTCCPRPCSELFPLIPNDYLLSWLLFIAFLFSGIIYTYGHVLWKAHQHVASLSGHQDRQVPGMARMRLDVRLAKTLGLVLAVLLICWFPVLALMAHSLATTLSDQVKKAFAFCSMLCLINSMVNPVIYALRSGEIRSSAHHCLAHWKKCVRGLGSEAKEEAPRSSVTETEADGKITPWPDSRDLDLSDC

CB1 = target: T2, CB1 (Rattus norvegicus, UniProt P20272); experiment: Preliminary selection with rat brain membranes; format: binding; details: rat brain and spleen membranes, read-out: CB1 (n.a. class, IC50 in preliminary selection)
T2 construct: from tissue; host or cells: rat brain membranes
T2 sequence (P20272 whole entry): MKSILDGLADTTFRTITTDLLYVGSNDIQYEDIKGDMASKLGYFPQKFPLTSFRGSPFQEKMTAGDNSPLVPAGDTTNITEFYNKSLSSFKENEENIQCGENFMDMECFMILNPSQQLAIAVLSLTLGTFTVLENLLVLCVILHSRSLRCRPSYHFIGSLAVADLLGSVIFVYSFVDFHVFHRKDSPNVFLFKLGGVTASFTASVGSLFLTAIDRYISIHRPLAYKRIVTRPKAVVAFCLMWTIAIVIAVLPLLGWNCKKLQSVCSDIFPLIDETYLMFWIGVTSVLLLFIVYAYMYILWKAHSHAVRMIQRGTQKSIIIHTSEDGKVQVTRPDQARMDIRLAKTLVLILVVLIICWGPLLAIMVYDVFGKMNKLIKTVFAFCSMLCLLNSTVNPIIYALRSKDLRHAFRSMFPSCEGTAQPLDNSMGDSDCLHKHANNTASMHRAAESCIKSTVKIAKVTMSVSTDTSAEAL

[5] = target: T3, CB1 cannabinoid receptors (Mus musculus, UniProt P47746); experiment: Forskolin-induced cyclic AMP in N18TG2 neuroblastoma cells; format: cell-based; details: N18TG2 cells
T3 construct: N18TG2 mouse neuroblastoma cells, which constitutively and selectively express the CB 1 cannabinoid receptors; endogenous in cells; host or cells: N18TG2 mouse neuroblastoma cells
T3 sequence (P47746 whole entry): as the sequence (P20272 whole entry) above, with E95D counted along it
Experimental: After incubation, 800 μl of methanol were added, cells were extracted and cyclic AMP was determined with a cyclic AMP assay kit (Amersham, UK), in accordance with the supplier's recommendations.

CB2 = target: T4, CB2 (Rattus norvegicus, UniProt Q9QZN9); experiment: Preliminary selection with rat spleen membranes; format: binding; details: rat brain and spleen membranes, read-out: CB2 (n.a. class, IC50 in preliminary selection)
T4 construct: from tissue; host or cells: rat spleen membranes
T4 sequence (Q9QZN9 1-360): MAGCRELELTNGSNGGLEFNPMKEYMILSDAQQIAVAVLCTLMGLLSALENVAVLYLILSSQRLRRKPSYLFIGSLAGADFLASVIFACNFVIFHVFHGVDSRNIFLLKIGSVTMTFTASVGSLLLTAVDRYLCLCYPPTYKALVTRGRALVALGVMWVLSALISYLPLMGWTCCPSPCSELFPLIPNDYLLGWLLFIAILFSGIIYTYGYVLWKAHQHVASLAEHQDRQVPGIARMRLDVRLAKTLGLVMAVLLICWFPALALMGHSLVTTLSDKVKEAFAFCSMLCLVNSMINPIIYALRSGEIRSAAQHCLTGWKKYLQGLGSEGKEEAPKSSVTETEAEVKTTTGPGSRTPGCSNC

[6] = recombinant human CB1, COS cell membranes
[7] = rat brain membranes, [14C]anandamide 6 μM, read-out: FAAH IC50

| Structure (SMILES) | IC50 [2] [µM] | melting point [°C] | Ki [4] [µM] | IC50 (CB1) [µM] | IC50 (CB2) [µM] | further results |
| --- | --- | --- | --- | --- | --- | --- |
| CCCCCc1cc(O)cc(OCCCCCCCCCCC(=O)NCCO)c1 [Compound 24, 11-(3-Hydroxy-5-pentyl-phenoxy)-undecanoic acid (2-hydroxy-ethyl)-amide] | 25 | 55 to 56 | 0.16 | – | – | IC50 [1]: > 10 µM; Ki [3, 6]: 0.8 µM |
| O=C(CCCCCCCCCCOc1cccc(O)c1)Nc1ccc(O)cc1 [Compound 35, 11-(3-Hydroxy-phenoxy)-undecanoic acid (4-hydroxy-phenyl)-amide] | – | 121.2 | – | > 10 | – | – |
| CCCCCCc1ccc(OCCCCCC(=O)NC2CC2)cc1O [Compound 40, 6-(3-Hydroxy-4-hexyl-phenoxy)-hexanoic acid cyclopropylamide] | – | 134.2 | 0.54 | – | – | IC50 ([1]; rat brain membranes, read-out: FAAH (n.a. class)): > 10 µM; functional behaviour at CB1 receptors ([5]; cAMP): inverse agonist/antagonist; EC50 ([5]; forskolin 1 μM, read-out: half-maximum effect concentration, stimulation of forskolin-induced cAMP formation): 0.15 µM; Ki [3, 6]: 0.18 µM |
| CCCCCCc1ccc(OCCCCCCCCCCC(=O)Nc2ccc(O)cc2)cc1O [Compound 44, 11-(3-Hydroxy-4-hexyl-phenoxy)-undecanoic acid (4-hydroxy-phenyl)-amide] | > 25 | 121.2 | – | > 10 | – | IC50 [1, 7]: 50 µM |
| CCCCCCc1ccc(OCCCCCCCCCCCCCCCC(=O)NCCO)cc1O [Compound 45, 16-(3-Hydroxy-4-hexyl-phenoxy)-hexadecanoic acid (2-hydroxy-ethyl)-amide] | – | 96.4 | – | > 10 | > 10 | – |
| CCCCCCc1ccc(OCCCCCCCCCCCCCCCC(=O)NC2CC2)cc1O [Compound 46, 16-(3-Hydroxy-4-hexyl-phenoxy)-hexadecanoic acid cyclopropylamide] | – | 114.3 | – | > 10 | > 10 | – |
| CCCCCCc1ccc(O)cc1OCCCCCCCCCCC(=O)Nc1ccc(O)cc1 [Compound 53, 11-(2-Hexyl-5-hydroxy-phenoxy)-undecanoic acid (4-hydroxy-phenyl)-amide] | > 25 | 108.7 | 2.11 | – | – | IC50 [1, 7]: 18 µM; Ki [3]: 3.3 µM |
| CCCCCCc1ccc(O)cc1OCCCCCCCCCCCCCCCC(=O)NCCO [Compound 54, 16-(2-Hexyl-5-hydroxy-phenoxy)-hexadecanoic acid (2-hydroxy-ethyl)-amide] | – | 77.2 | – | > 10 | > 10 | – |
